In patent US20230073755A1, “USE OF IGF1 IN COMBINATION WITH IGFEC24 IN PREPARATION OF MEDICINE FOR PROMOTING TISSUE REPAIR AND REGENERATION” (Chongqing University, priority 2020, published 2023):

How the values were obtained:
neuronal cells = assay: Neuroproliferation effect (Edu / DCX immunofluorescence, hippocampal dentate gyrus), adult female SD rats; type: in vivo; conditions: FIG. 4
Method: (§1) In certain embodiments, adult female SD rats were divided into five groups: PBS group, IGF1 group, IGF1Ec group, IGF1-24 group, and IGF1+IGF1Ec24 peptide group, with three rats in each group. The rats in each group were distinguished by ear clipping for subsequent protein injection according to the different body weights of the rats.
(§2) The rats in each group were injected with PBS, IGF1, IGF1Ec24 peptide, IGF1Ec and IGF1-24 for 7 consecutive days. Recombinant protein IGF1-24 was injected at 100 μg/kg, and the injection of the remaining proteins in each group was converted according to the molar amount of IGF1-24 injection as follows: 90 μg/kg for IGF1, 8.9 μg/kg for IGF1Ec24 peptide, 104 μg/kg for IGF1Ec.
(§3) After seven days of protein injection, the intraperitoneal injection of Edu solution at a concentration of 2.5 mg/kg was performed for seven days, so that the final total dose of each rat reached 50 mg/kg. […]
The microscope was selected with a 20× lens to observe the fluorescence staining of the dentate gyrus in the whole hippocampal region; the number of immature neurons and the number of newly proliferating neuronal cells in the dentate gyrus of the hippocampus were recorded.

skeletal muscle cells = assay: Skeletal muscle cell proliferation effect (Edu / Desmin immunofluorescence of gastrocnemius muscle), SD rats; type: in vivo; conditions: gastrocnemius muscle sections, FIG. 8
Method: as §1, §2, §3

With “IGF1-24: 97 amino acids: amino-terminal 70 identical to IGF1, carboxyl-terminal 24 identical to IGFEc24 peptide, joined by three Gly linkers (SEQ ID NO: 4)” the “proliferation of neuronal cells” value (neuronal cells) was 10% and the “number of Edu-positive skeletal muscle cells per square millimeter” value (skeletal muscle cells) was 28 per square millimeter.
